From PMC9862597, “Anti-Colorectal Cancer Effects of a Novel Camptothecin Derivative PCC0208037 In Vitro and In Vivo” (Pharmaceuticals, 2022)

Experiments:
[1] = target: T1, recombinant Topo I (Homo sapiens, UniProt P11387); experiment: Topoisomerase I activity assay (DNA relaxation); assay type: biochemical; conditions: PCC0208037 100 and 10 nmol/L, SN-38 100 nmol/L, CPT-11 100 nmol/L; 30 min, 37 °C
T1 construct: purchased TopoGEN, Inc (Buena Vista, CO, USA) TG1018
T1 sequence (P11387 1-765): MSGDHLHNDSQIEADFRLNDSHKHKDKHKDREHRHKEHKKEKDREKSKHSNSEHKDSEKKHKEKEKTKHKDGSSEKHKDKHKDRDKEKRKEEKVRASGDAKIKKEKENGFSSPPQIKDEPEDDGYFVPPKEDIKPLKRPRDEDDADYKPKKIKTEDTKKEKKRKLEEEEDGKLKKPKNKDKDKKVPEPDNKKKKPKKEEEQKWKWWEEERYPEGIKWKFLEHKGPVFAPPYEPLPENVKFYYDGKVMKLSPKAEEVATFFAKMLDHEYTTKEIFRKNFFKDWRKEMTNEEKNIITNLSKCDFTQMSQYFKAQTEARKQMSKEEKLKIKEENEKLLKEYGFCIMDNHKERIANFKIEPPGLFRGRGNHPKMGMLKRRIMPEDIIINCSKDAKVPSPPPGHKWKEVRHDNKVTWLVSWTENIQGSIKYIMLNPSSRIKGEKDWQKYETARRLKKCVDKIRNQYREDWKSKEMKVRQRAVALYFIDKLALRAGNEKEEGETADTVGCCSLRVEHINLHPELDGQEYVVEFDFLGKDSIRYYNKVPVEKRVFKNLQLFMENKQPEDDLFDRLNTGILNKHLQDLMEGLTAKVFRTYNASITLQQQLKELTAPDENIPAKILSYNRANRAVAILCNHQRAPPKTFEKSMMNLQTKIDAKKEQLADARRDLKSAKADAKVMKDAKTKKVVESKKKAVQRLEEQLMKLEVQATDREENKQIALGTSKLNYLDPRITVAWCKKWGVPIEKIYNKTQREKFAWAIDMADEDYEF
Method: To determine whether PCC0208037 inhibited Topo I activity, a DNA relaxation assay was conducted. In this assay, supercoiled plasmid DNA was relaxed and nicked by recombinant Topo I, while no nicked DNA would be found when the Topo I enzyme was inhibited.
A Topoisomerase I Drug Screening Kit was used to detect the inhibitory activity of PCC0208037 against Topo I in the cell-free system. 1 IU Topo I and 250 ng of supercoiled plasmid DNA were pre-incubated with DMSO, PCC0208037 (100 nmol/L and 10 nmol/L), SN-38(100 nmol/L), or CPT (100 nmol/L) in a reaction buffer with a final volume of 20 μL and incubated for 30 min at 37 °C; then, the reaction was stopped by the addition of 2 ul of 10% SDS. Then, proteinase K was added to 50 ug/mL, incubated for 15 min at 37 °C, and 0.1 vol. of a loading buffer (0.25% bromophenol blue, 50% glycerol) was added. The supercoiled, relaxed, or nicked DNA was separated by 1% agarose gel in a 1 TAE (Tris-Acetate-EDTA) buffer. Ethidium bromide-stained agarose gel was photographed using Gel Doc XR.
Figure 4 Inhibition of Topo I activity by PCC0208037. […] Plasmid DNA was separated by an agarose gel and stained with ethidium bromide.

[2] = Pharmacokinetic study, single intravenous dose
Method: Blood samples were collected at 0.083 h, 0.25 h, 0.5 h, 1 h, 2 h, 4 h, 8 h, and 12 h after administration. Plasma was prepared after centrifugation at 6000× g for 5 min and then stored at −20 °C for further analysis.

[3] = test system: LS180 cells; experiment: MTT cell viability assay, LS180; assay type: cell-based; conditions: Homo sapiens, LS180, 72 h
Method: Cell viability was assessed using the MTT assay, as previously reported. Briefly, colorectal cancer cells (LS180, HCT116, CT-26, and HT-29 cells) were plated onto 96-well plates at 3000 cells per well and incubated overnight. […] Control cells were treated with DMSO at a final concentration of 0.1%. Cells were cultured with the compounds or medium for 72 h. The cells were then treated with MTT. The medium was then decanted, and DMSO was added and shaken until the color reaction was complete. The […] were read using a Molecular Devices SpectraMax M5 (San Jose, CA, USA) at OD570 nm. The half maximal inhibitory concentration (IC50) was calculated.

[4] = BALB/c, mouse, in vivo, iv, 10.65 mg/kg
[5] = PCC0208037 in plasma, 10.65 mg/kg PCC0208037 i.v., n = 3

In the case of `CCc1c2c(nc3ccc(O)cc13)-c1cc3c(c(=O)n1C2)COC(=O)[C@@]3(CC)OC(=O)Nc1nc(=O)n([C@@H]2O[C@H](C)[C@@H](O)[C@H]2O)cc1F` [PCC0208037], the “inhibition of Topo I activity (supercoiled plasmid DNA relaxation)” value [1] is reported as “dose-dependently increased the presence of supercoiled DNA”, the Cmax [2, 4] is reported as 137 µg/mL and the Tmax [2, 4] is reported as 11.4 ± 4.2 min. The half-life [2, 4] was 70.2 ± 0.9 min, the AUCinf [2, 5] was 68,388.4 ± 17,991.1 H * ng/mL and the AUClast [2, 5] was 68,292.5 ± 18,078.2 H * ng/mL. It also gave an IC50 [3] of 220 ± 60 nM.
